Test results reported in patent US12545639B2, “3-substituted phenylamidine compounds, preparation and use thereof” (PI INDUSTRIES LTD., priority 2019, dated 2026).

Experiments:
Botrytis cinerea = Botrytis cinerea (gray mold) in vitro test, radial growth on potato dextrose agar; assay type: cell-based; conditions: 168 h, 300 ppm in potato dextrose agar, 22° C., 90% relative humidity, seven days, read-out: control compared to the untreated check (radial growth)
Alternaria solani = Alternaria solani (early blight of tomato/potato) in vitro test, radial growth on potato dextrose agar; assay type: cell-based; conditions: 168 h, 300 ppm in potato dextrose agar, 25° C., 60% relative humidity, seven days, read-out: control compared to the untreated check (radial growth)
Rhizoctonia solani = Rhizoctonia solani (rice sheath blight/potato black scurf) in vitro test, radial growth on potato dextrose agar; assay type: cell-based; conditions: 168 h, 300 ppm in potato dextrose agar, 25° C., 60% relative humidity, seven days, read-out: control compared to the untreated check (radial growth)
Pyricularia oryzae = assay: microbe, parasite or virus in culture; assay type: cell-based; conditions: 168 h, read-out: control compared to the untreated check (radial growth)
[1] = test system: Septoria lycopersici/Corynespora cassicola (CORYCA); assay: Septoria lycopersici/Corynespora cassicola (CORYCA) (leaf spot of tomato) in vitro test, radial growth on potato dextrose agar; assay type: cell-based; conditions: 168 h, 300 ppm in potato dextrose agar, 25° C., 70% relative humidity, seven days, read-out: control compared to the untreated check (radial growth)
Phakopsora pachyrhizi = Phakopsora pachyrhizi test in soybean, preventive, in vivo on plants; conditions: in Glycine max, read-out: Efficacy (% control), disease severity compared to the untreated check

CCN(C)C=Nc1cc(F)cc(N(C)c2ccc(Cl)cc2F)c1C [Compound 140, N′-(3-((4-chloro-2-fluorophenyl)(methyl)amino)-5-fluoro-2-methylphenyl)-N-ethyl-N-methylformimidamide]
≥ 70%: inhibition of growth at 300 ppm (Botrytis cinerea) | inhibition of growth at 300 ppm (Alternaria solani) | inhibition of growth at 300 ppm (Rhizoctonia solani) | inhibition of growth at 300 ppm (Pyricularia oryzae) | inhibition of growth at 300 ppm [1]

CCN(C)C=Nc1cc(C)cc(Nc2ccc(F)c(F)c2)c1Cl [Compound 72, N′-(2-chloro-3-((3,4-difluorophenyl)amino)-5-methylphenyl)-N-ethyl-N-methylformimidamide]
≥ 70%: inhibition of growth at 300 ppm (Botrytis cinerea) | inhibition of growth at 300 ppm (Alternaria solani) | inhibition of growth at 300 ppm (Rhizoctonia solani) | inhibition of growth at 300 ppm (Pyricularia oryzae) | inhibition of growth at 300 ppm [1]

CCN(C)C=Nc1cc(C)cc(Nc2ccccc2OC(F)(F)F)c1Cl [Compound 302, N′-(2-chloro-5-methyl-3-((2-(trifluoromethoxy)phenyl)amino)phenyl)-N-ethyl-N-methylformimidamide]
≥ 70%: inhibition of growth at 300 ppm (Botrytis cinerea) | inhibition of growth at 300 ppm (Alternaria solani) | inhibition of growth at 300 ppm (Rhizoctonia solani) | inhibition of growth at 300 ppm (Pyricularia oryzae) | inhibition of growth at 300 ppm [1]

CCN(C)C=Nc1cc(F)cc(Nc2ccc(Cl)cc2F)c1C [Compound 136, N′-(3-((4-chloro-2-fluorophenyl)amino)-5-fluoro-2-methylphenyl)-N-ethyl-N-methylformimidamide]
≥ 70%: inhibition of growth at 300 ppm (Botrytis cinerea) | inhibition of growth at 300 ppm (Alternaria solani) | inhibition of growth at 300 ppm (Rhizoctonia solani) | inhibition of growth at 300 ppm (Pyricularia oryzae) | inhibition of growth at 300 ppm [1]

CCN(C)C=Nc1cc(C#N)cc(Cc2ccccc2)c1C [Compound 308, N′-(3-benzyl-5-cyano-2-methylphenyl)-N-ethyl-N-methylformimidamide]
≥ 70%: inhibition of growth at 300 ppm (Botrytis cinerea) | inhibition of growth at 300 ppm (Alternaria solani) | inhibition of growth at 300 ppm (Rhizoctonia solani) | inhibition of growth at 300 ppm (Pyricularia oryzae) | inhibition of growth at 300 ppm [1]

CCN(C)C=Nc1cc(C)cc(N(C)c2ccccc2)c1Cl [Compound 10, N′-(2-chloro-5-methyl-3-(methyl(phenyl)amino)phenyl)-N-ethyl-N-methylformimidamide]
≥ 70%: inhibition of growth at 300 ppm (Botrytis cinerea) | inhibition of growth at 300 ppm (Alternaria solani) | inhibition of growth at 300 ppm (Pyricularia oryzae) | inhibition of growth at 300 ppm [1]

CCN(C)C=Nc1cc(F)cc(Nc2ccccc2OC(F)(F)F)c1C [Compound 303, N-ethyl-N′-(5-fluoro-2-methyl-3-((2-(trifluoromethoxy)phenyl)amino)phenyl)-N-methylformimidamide]
≥ 70%: inhibition of growth at 300 ppm (Botrytis cinerea) | inhibition of growth at 300 ppm (Alternaria solani) | inhibition of growth at 300 ppm (Rhizoctonia solani) | inhibition of growth at 300 ppm (Pyricularia oryzae) | inhibition of growth at 300 ppm [1]

CCN(C)C=Nc1cc(C)cc(N(C)c2cccc(C)c2)c1Cl [Compound 43, N′-(2-chloro-5-methyl-3-(methyl(m-tolyl)amino)phenyl)-N-ethyl-N-methylformimidamide]
≥ 70%: inhibition of growth at 300 ppm (Botrytis cinerea) | pest or weed control at 500 ppm (Phakopsora pachyrhizi) | inhibition of growth at 300 ppm (Alternaria solani) | inhibition of growth at 300 ppm [1]

CCN(C)C=Nc1cc(F)cc(Nc2ccc(F)cc2F)c1C [Compound 76, N′-(3-((2,4-difluorophenyl)amino)-5-fluoro-2-methylphenyl)-N-ethyl-N-methylformimidamide]
≥ 70%: inhibition of growth at 300 ppm (Botrytis cinerea) | inhibition of growth at 300 ppm (Alternaria solani) | inhibition of growth at 300 ppm (Rhizoctonia solani) | inhibition of growth at 300 ppm (Pyricularia oryzae) | inhibition of growth at 300 ppm [1]

CCN(C)C=Nc1cc(F)cc(Cc2ccccc2F)c1C [Compound 141, N-ethyl-N′-(5-fluoro-3-(2-fluorobenzyl)-2-methylphenyl)-N-methylformimidamide]
≥ 70%: inhibition of growth at 300 ppm (Botrytis cinerea) | inhibition of growth at 300 ppm (Rhizoctonia solani) | inhibition of growth at 300 ppm (Pyricularia oryzae) | inhibition of growth at 300 ppm [1]
